According to ChEMBL document CHEMBL1811886 (J Med Chem, 2011):

Tests used:
[1] = target: Histamine H3 receptor (Rattus norvegicus, UniProt Q9QYN8); test: Displacement of [3H]NAMH from rat histamine H3 receptor expressed in CHO cells; assay type: cell-based
[2] = Terminal half life in fasted Sprague-Dawley rat at 1 mg/kg, iv after 6 to 24 hrs by LC-MS/MS analysis; assay type: ADME, organism-based; design: dose 1 mg/kg, route intravenous; details: in vivo, read-out: beta t1/2 (converted)
[3] = target: Histamine H3 receptor (Homo sapiens, UniProt Q9Y5N1); test: Displacement of [3H]NAMH from human histamine H3 receptor expressed in CHO cells; assay type: cell-based
[4] = Systemic clearance in fasted Sprague-Dawley rat at 1 mg/kg, iv after 6 to 24 hrs by LC-MS/MS analysis; assay type: ADME, organism-based; design: dose 1 mg/kg, route intravenous; details: in vivo
[5] = Ratio of drug uptake in brain to plasma of fasted Sprague-Dawley rat at 1 mg/kg, iv after 6 to 24 hrs by LC-MS/MS analysis; assay type: ADME, organism-based; design: dose 1 mg/kg, route intravenous; details: read-out: BPR
[6] = Oral bioavailability in fasted Sprague-Dawley rat at 5 mg/kg after 6 hrs by LC-MS/MS analysis; assay type: ADME, organism-based; details: in vivo
[7] = Bioavailability in fasted Sprague-Dawley rat at 1 mg/kg, iv after 6 to 24 hrs by LC-MS/MS analysis; assay type: ADME, organism-based; details: in vivo
[8] = Dissociation constant, pKa of the compound; assay type: physicochemical

Sequence of Histamine H3 receptor (Homo sapiens, UniProt Q9Y5N1) (Q9Y5N1 whole entry): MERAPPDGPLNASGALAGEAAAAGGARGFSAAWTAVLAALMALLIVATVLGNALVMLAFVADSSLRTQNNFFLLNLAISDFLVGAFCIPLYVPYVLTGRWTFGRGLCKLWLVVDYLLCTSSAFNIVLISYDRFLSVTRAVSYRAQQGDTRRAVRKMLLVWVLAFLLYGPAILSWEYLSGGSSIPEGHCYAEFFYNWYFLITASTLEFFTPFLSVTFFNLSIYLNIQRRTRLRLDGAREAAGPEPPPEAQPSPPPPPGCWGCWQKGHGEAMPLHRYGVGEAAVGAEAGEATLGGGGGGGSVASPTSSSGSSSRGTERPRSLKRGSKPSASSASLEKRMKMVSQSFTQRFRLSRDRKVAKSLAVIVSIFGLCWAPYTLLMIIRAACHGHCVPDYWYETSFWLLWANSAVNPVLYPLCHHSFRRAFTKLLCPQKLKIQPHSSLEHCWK
Sequence of Histamine H3 receptor (Rattus norvegicus, UniProt Q9QYN8) (Q9QYN8 whole entry): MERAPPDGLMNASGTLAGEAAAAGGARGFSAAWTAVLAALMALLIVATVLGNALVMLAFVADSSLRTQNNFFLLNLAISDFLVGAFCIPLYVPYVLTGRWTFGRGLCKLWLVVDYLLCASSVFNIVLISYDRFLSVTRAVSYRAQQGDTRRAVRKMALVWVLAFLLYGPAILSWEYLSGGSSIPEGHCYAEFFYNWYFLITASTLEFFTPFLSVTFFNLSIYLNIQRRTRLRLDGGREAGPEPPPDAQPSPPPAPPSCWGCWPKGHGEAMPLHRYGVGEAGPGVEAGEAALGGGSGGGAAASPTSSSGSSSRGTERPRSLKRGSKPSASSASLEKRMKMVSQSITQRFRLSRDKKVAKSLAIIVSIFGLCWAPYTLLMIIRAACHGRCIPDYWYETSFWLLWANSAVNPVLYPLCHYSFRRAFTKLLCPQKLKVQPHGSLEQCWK

SMILES | Ki [1] | half-life [2] | Ki [3] | clearance [4] | Kp [5] | bioavailability [6] | bioavailability [7] | pKa [8]
Cn1nc(-c2ccc(OCCCN3CCC[C@@H]3CO)cc2)ccc1=O | 0.427 µM | – | – | – | – | – | – | –
O=c1ccc(-c2ccc(OCCCN3CCCCC3)cc2)n[nH]1 | 0.037 µM | 54 min | 0.0087 µM | 4.9 mL/min/kg | 1.9 | 11% | – | –
C[C@@H]1CCCN1CCCOc1ccc(-n2ncccc2=O)cc1 | 0.347 µM | – | 0.082 µM | – | – | – | – | –
C[C@@H]1CCCN1CCc1cc2cc(-c3ccc(C#N)cc3)ccc2o1 | – | 90 min | – | 39 mL/min/kg | 32 | – | > 18% | –
C[C@H]1CCCN1CCCOc1ccc(-c2ccc(=O)[nH]n2)cc1 | 0.05 µM | 96 min | 0.016 µM | 14.5 mL/min/kg | 3.1 | 25% | – | –
CCn1nc(-c2ccc(OCCCN3CCC[C@H]3C)cc2)ccc1=O | 0.011 µM | 24 min | 0.0039 µM | 238 mL/min/kg | 1.5 | 18% | – | –
O=c1ccc(-c2ccc(OCCCN3CCOCC3)cc2)n[nH]1 | 0.822 µM | – | 0.767 µM | – | – | – | – | 7.1
C[C@@H]1CCCN1CCCOc1ccc(-c2ccc(=O)n(Cc3ccccc3)n2)cc1 | 0.012 µM | 42 min | 0.0069 µM | 46 mL/min/kg | 3.8 | < 1% | – | –
